In patent US7183383B2, “Uses of collagen IV” (The University of Arkansas for Medical Sciences, priority 2002, dated 2007):

Assays:
Assay type in all cases: cell-based, rabbit
[1] = system: prolyl hydroxylase activity in renal proximal tubular cells; assay: Proline hydroxylation in newly synthesized collagen IV (dual labeling); conditions: day 1 after DCVC
Description: Proline hydroxylation in collagen molecules occurs at the 4-trans position. Therefore, the extent of proline hydroxylation can be estimated by the loss of hydrogen from the 4-trans position of proline in the hydroxylation reaction. A previously described dual-labeling technique for the determination of proline hydroxylation was modified using [^14C]-L-proline and 4-[^3H]-L-proline incorporation into collagen IV and measuring the ratio of [^3H]:[^14C] in collagen IV molecules (5). A greater extent of proline hydroxylation at the 4-trans position of proline will result in a decrease in the ratio of [^3H]:[^14C] in newly synthesized collagen molecules due to the loss of [^3H]. Renal proximal tubular cells were dual-labeled for 24 hours with [^14C]-L-proline ([…]) and 4-[^3H]-L-proline (62.5 μCi/ml) immediately after S-(1,2-dichlorovinyl)-L-cysteine exposure. Cell-associated and deposited proteins were harvested, and collagen IV was immunoprecipitated as described above. Immunoprecipitated collagen IV was visualized by SDS-PAGE as described above, the 206 kDa bands in the destained gels were excised, and the protein was extracted with 90% hyamine hydroxide overnight at 37° C. [^14C]-Proline and 4-[^3H]-proline in collagen IV was determined using liquid scintillation spectrometry, and the extent of proline hydroxylation was calculated as the ratio of [^3H]:[^14C].

[2] = system: renal proximal tubular cells; assay: Active Na^+ transport (ouabain-sensitive QO2); conditions: for decrease in active Na^+ transport: day 1 after DCVC injury, in presence of the agent; for active Na+ transport in uninjured RPTC: days 1 or 6
Description: (§1) Confluent monolayers of renal proximal tubular cells (day 6 after seeding) were exposed to 200 μM S-(1,2-dichlorovinyl)-L-cysteine (dissolved in water) for 1.75 hours followed by toxicant removal and addition of fresh culture media. This method produces approximately 50% cell death and loss 24 hours after the exposure. In some experiments, exogenous collagen IV (50 μg/ml), collagen I (50 μg/ml), or function-stimulating antibodies to collagen-binding integrin subunits α2 or β1 (5 μg/ml) was added daily to the culture media of S-(1,2-dichlorovinyl)-L-cysteine-injured renal proximal tubular cells cultured in the absence of pharmacological concentrations of L-ascorbic acid-2-phosphate. Function-stimulating antibodies to collagen-binding integrin α1 are not commercially available at this time. On days 1 and 6 following S-(1,2-dichlorovinyl)-L-cysteine exposure, active Na^+ transport or Na^+/K^+-ATPase activity, and collagen-binding integrin expression and/or localization in the remaining sublethally injured renal proximal tubular cells was determined as described below.
Renal proximal tubular cells were gently detached from culture dishes with a rubber policeman and transferred to a 37° C. oxygen consumption (QO2) chamber. QO2 in renal proximal tubular cells was measured polarographically in the absence (basal QO2) or presence of ouabain (100 μM) (ouabain-insensitive QO2) using a Clark-type electrode as described previously (Nowak and Schnellmann, 1995). Active Na^+ transport (ouabain-sensitive QO2) was calculated by subtracting ouabain-insensitive QO2 from basal QO2. Protein concentrations were determined using the bicinchoninic acid microassay according to the manufacturer's instructions (Pierce, Rockford, Ill.).

[3] = system: Na^+/K^+-ATPase activity in renal proximal tubular cells; assay: Na^+/K^+-ATPase activity (ouabain-sensitive ATPase)
Description: Confluent monolayers of renal proximal tubular cells (day 6 after seeding) were exposed to 200 μM S-(1,2-dichlorovinyl)-L-cysteine (dissolved in water) for 1.75 hours followed by toxicant removal and addition of fresh culture media. This method produces approximately 50% cell death and loss 24 hours after the exposure. On days 1, 4, and 6 following S-(1,2-dichlorovinyl)-L-cysteine exposure, the ability of the remaining renal proximal tubular cells to regenerate and repair physiological function was monitored as described below. In some experiments, immediately after S-(1,2-dichlorovinyl)-L-cysteine exposure and after daily media change through day 6 after injury, collagen I (0, 5, 15, or 50 μg/ml), collagen IV (0, 5, 15, or 50 μg/ml), laminin (50 μg/ml), or cellular fibronectin (50 μg/ml) was added to the culture media of uninjured and S-(1,2-dichlorovinyl)-L-cysteine-injured renal proximal tubular cells grown in physiological concentrations of AscP. Exogenous collagens I and IV used in this study were triple helical and contained only α1 and α2 chains in conformations similar to those found in the renal basement membrane (3, 25). Laminin was a mixture of biologically active laminin chains found in most epithelial tissues (8, 50) and cellular fibronectin was composed of functional dimers (51).
On days 1 and 6 after sublethal S-(1,2-dichlorovinyl)-L-cysteine injury, total ATPase activity was measured using a modification of a previously described procedure (44). Briefly, renal proximal tubular cells cultured in 48-well cell culture clusters were scraped and incubated in dissociation buffer (5 mM HEPES (pH 7.4), 25 mM imidazole, 1% BSA, 0.065% sodium dodecyl sulfate (SDS)) for 10 min. at room temperature and placed on ice. The dissociated renal proximal tubular cells were then diluted 5-fold with additional dissociation buffer minus SDS. Aliquots of dissociated renal proximal tubular cells were combined with fresh ATPase assay buffer (2.54 mM MgCl2, 100 mM NaCl, 10 mM KCl, 5 mM HEPES, 10 U/ml lactate dehydrogenase, 7 U/ml pyruvate kinase, 2.54 mM Na2ATP, 2.54 mM phospho(enol)pyruvate, and 0.5 mM β-NADH). ATPase activity was measured under linear conditions spectrophotometrically as the oxidation of β-NADH to NAD^+ at 37° C. in the absence or presence of ouabain (0.1 mM) at a wavelength of 340 nm. Na^+/K^+-ATPase activity was calculated as total ATPase activity minus ouabain-insensitive ATPase activity.
as §1
Total ATPase activity was measured as described above. […]

[4] = day 6, AscP 500 μM or collagen IV 50 μg/ml

Row | Compound | ratio of 4-[^3H]-L-proline:[^14C]-L-proline greater than controls ([1]; 500 μM AscP) | decrease in active Na^+ transport [2] | active Na^+ transport in DCVC-injured RPTC [2, 4] | active Na+ transport in uninjured RPTC [2] | Na^+/K^+-ATPase activity higher than in injured RPTC in physiological AscP ([3]; day 6 after DCVC, 500 μM AscP) | Na^+/K^+-ATPase activity, untreated RPTC, 50 μM vs 500 μM ([3]; uninjured RPTC) | ratio of 4-[^3H]-L-proline:[^14C]-L-proline greater than controls ([1]; 50 μM AscP, higher ratio = decreased proline hydroxylation) | active Na^+ transport ([2]; day 1 following DCVC injury) | active Na^+ transport ([2]; day 6 after DCVC injury) | decrease in Na^+/K^+-ATPase activity ([3]; one day after DCVC (200 μM), both 50 μM and 500 μM AscP) [%] | active Na^+ transport in DCVC-injured RPTC ([2]; day 6 after injury, 5, 15, 50 μg/ml) | Na^+/K^+-ATPase activity in injured RPTC ([3]; day 6 after DCVC injury, 50 μg/ml)
1 | O=C1O[C@H]([C@@H](O)CO)C(O)=C1OP(=O)(O)O [L-ascorbic acid-2-phosphate, L-Ascorbic acid-2-phosphate] | approximately 45% | approximately 80% | increase in active Na^+ transport | no effect | approximately 150% | equivalent at all time points | – | – | – | – | – | –
2 | N[C@@H](CSC(Cl)=CCl)C(=O)O [S-(1,2-dichlorovinyl)-L-cysteine] | – | – | – | – | – | – | approximately 80% | marked inhibition | marked inhibition | ~65 | – | –
3 | collagen IV: Human placenta collagen IV (Sigma); triple helical, containing only α1 and α2 chains | – | approximately 80% | increase in active Na^+ transport | no effect | – | – | – | – | – | – | concentration-dependent improvement | significantly increased
